Earlier results, collected in patent publication US20100160366A1, “TREATMENT METHOD” (Schering Corporation, priority 2000, published 2010).

How the values were obtained:
allergic immune cells = allergic immune cells in vitro

CCOC(=O)N1CCC(=C2c3ccc(Cl)cc3CCc3cccnc32)CC1 [loratadine]
activity of eosinophils (eosinophils): inhibited | chemotaxis of eosinophils (eosinophils): inhibited | activation of monocytes as measured by superoxide anion production (monocytes): reduced | release of mast cell histamine (allergic immune cells): inhibit | release of the cysteinyl leukotriene LTC4 (allergic immune cells): inhibit | inflammatory cytokine IL-6 (IL-6): inhibited | adhesion molecule ICAM-1 expression (ICAM-1): reduced
